In US10787442B2, “Modulators of indoleamine 2,3-dioxygenase” (GLAXOSMITHKLINE INTELLECTUAL PROPERTY DEVELOPMENT LIMITED, priority 2016, dated 2020):

These molecules were tested on human peripheral blood mononuclear cells (PBMC) (assay: PBMC cytotoxicity assay (CellTiter-Glo)). Details: cytotoxicity in stimulated PBMC, recorded as pCC50.
Type: cell-based
Method: Compounds of the present invention were tested via high-throughput cellular assays utilizing detection of kynurenine via mass spectrometry and cytotoxicity as end-points. […] Compounds with IDO1 inhibitory properties decreased the amount of kynurenine produced by the cells via the tryptophan catabolic pathway. Cellular toxicity due to the effect of compound treatment was measured using CellTiter-Glo® reagent (CTG) (Promega Corporation, Madison, Wis.), which is based on luminescent detection of ATP, an indicator of metabolically active cells.
In preparation for the assays, test compounds were serially diluted 3-fold in DMSO from a typical top concentration of 1 mM or 5 mM and plated at 0.5 μL in 384-well, polystyrene, clear bottom, tissue culture treated plates with lids (Greiner Bio-One, Kremsmünster, Austria) to generate 11-point dose response curves. Low control wells (0% kynurenine or 100% cytotoxicity) contained either 0.5 μL of DMSO in the presence of unstimulated (−IFN-γ/−LPS) PBMCs for the mass spectrometry assay or 0.5 μL of DMSO in the absence of cells for the cytotoxicity assay, and high control wells (100% kynurenine or 0% cytotoxicity) contained 0.5 μL of DMSO in the presence of stimulated (+IFN-γ/+LPS) PBMCs for both the mass spectrometry and cytotoxicity assays.
Frozen stocks of PBMCs were washed and recovered in RPMI 1640 medium (Thermo Fisher Scientific, Inc., Waltham, Mass.) supplemented with 10% v/v heat-inactivated fetal bovine serum (FBS) (Thermo Fisher Scientific, Inc., Waltham, Mass.), and 1× penicillin-streptomycin antibiotic solution (Thermo Fisher Scientific, Inc., Waltham, Mass.). The cells were diluted to 1,000,000 cells/mL in the supplemented RPMI 1640 medium. 50 μL of either the cell suspension, for the mass spectrometry assay, or medium alone, for the cytotoxicity assay, were added to the low control wells, on the previously prepared 384-well compound plates, resulting in 50,000 cells/well or 0 cells/well respectively. IFN-γ and LPS were added to the remaining cell suspension at final concentrations of 100 ng/ml and 50 ng/ml respectively, and 50 μL of the stimulated cells were added to all remaining wells on the 384-well compound plates. The plates, with lids, were then placed in a 37° C., 5% CO2 humidified incubator for 2 days.
Following incubation, the 384-well plates were removed from the incubator and allowed to equilibrate to room temperature for 30 minutes. For the cytotoxicity assay, CellTiter-Glo® was prepared according to the manufacturer's instructions, and 40 μL were added to each plate well. After a twenty minute incubation at room temperature, luminescence was read on an EnVision® Multilabel Reader (PerkinElmer Inc., Waltham, Mass.). For the mass spectrometry assay, 10 μL of supernatant from each well of the compound-treated plates were added to 40 μL of acetonitrile, containing 10 μM of an internal standard for normalization, in 384-well, polypropylene, V-bottom plates (Greiner Bio-One, Kremsmünster, Austria) to extract the organic analytes. Following centrifugation at 2000 rpm for 10 minutes, 10 μL from each well of the acetonitrile extraction plates were added to 90 μL of sterile, distilled H2O in 384-well, polypropylene, V-bottom plates for analysis of kynurenine and the internal standard on the RapidFire 300 (Agilent Technologies, Santa Clara, Calif.) and 4000 QTRAP MS (SCIEX, Framingham, Mass.). MS data were integrated using Agilent Technologies' RapidFire Integrator software, and data were normalized for analysis as a ratio of kynurenine to the internal standard.

Row | SMILES | PBMC_TOX PXC50
1 | CC(C)CN(c1ncc([C@H](C)CC(=O)NO)cc1Nc1ccc(Cl)cn1)C1CCOCC1 [Example 78, (3R)-3-{5-[(5-chloropyridin-2-yl)amino]-6-[(2-methylpropyl)(oxan-4-yl)amino]pyridin-3-yl}-N-hydroxybutanamide] | <5.0
2 | COC1CCC(N(CC(C)C)c2ncc(C(C)CC(=O)O)cc2Nc2nc(Cl)ns2)CC1 (stereo not drawn) [Example 46, (3RS)-3-{5-[(3-chloro-1,2,4-thiadiazol-5-yl)amino]-6-[(2-methylpropyl)[(1rs&,4rs&)-4-methoxycyclohexyl]amino]pyridin-3-yl}butanoic acid] | <5.0
3 | CC(C)CN(CC(C)C)c1ncc([C@H](C)CC(=O)O)cc1Nc1nc(C(C)C)ns1 [Example 54, (3R)-3-{6-[bis(2-methylpropyl)amino]-5-{[3-(propan-2-yl)-1,2,4-thiadiazol-5-yl]amino}pyridin-3-yl}butanoic acid] | <5.0
4 | CC(C)CN(c1ncc([C@H](C)CC(=O)O)cc1Nc1n[nH]c(C#N)n1)C1CCOCC1 [Example 43, (3R)-3-{5-[(5-cyano-1H-1,2,4-triazol-3-yl)amino]-6-[(2-methylpropyl)(oxan-4-yl)amino]pyridin-3-yl}butanoic acid] | <5.0
5 | COC(=O)c1c[nH]c(Nc2cc([C@H](C)CC(=O)O)cnc2N(CC(C)C)C2CCOCC2)n1 [Example 50, (3R)-3-(5-{[4-(methoxycarbonyl)-1H-imidazol-2-yl]amino}-6-[(2-methylpropyl)(oxan-4-yl)amino]pyridin-3-yl)butanoic acid] | <5.0
6 | CO[C@H]1CC[C@H](N(CC(C)C)c2ncc([C@H](C)CC(=O)O)cc2Nc2nc(C(F)(F)F)ns2)CC1 [Example 26, (R)-3-(6-(isobutyl((1r,4R)-4-methoxycyclohexyl)amino)-5-((3-(trifluoromethyl)-1,2,4-thiadiazol-5-yl)amino)pyridin-3-yl)butanoic acid] | <5.0
7 | CO[C@H]1CC[C@@H](N(CC(C)C)c2ncc([C@H](C)CC(=O)O)cc2Nc2nc(Cl)ns2)CC1 [Example 21, (R)-3-(5-((3-chloro-1,2,4-thiadiazol-5-yl)amino)-6-(isobutyl((1s,4S)-4-methoxycyclohexyl)amino)pyridin-3-yl)butanoic acid] | <5.0
8 | CO[C@H]1CC[C@@H](N(CC(C)C)c2ncc([C@H](C)CC(=O)O)cc2Nc2nc(C(F)(F)F)ns2)CC1 [Example 22, (R)-3-(6-(isobutyl((1s,4S)-4-methoxycyclohexyl)amino)-5-((3-(trifluoromethyl)-1,2,4-thiadiazol-5-yl)amino)pyridin-3-yl) butanoic acid] | <5.4
9 | CC(C)CN(c1ncc([C@H](C)CC(=O)O)cc1Nc1nc(C(F)(F)F)ns1)[C@H]1CC[C@H](O)CC1 [Example 28, (R)-3-(6-(((1r,4R)-4-hydroxycyclohexyl)(isobutyl)amino)-5-((3-(trifluoromethyl)-1,2,4-thiadiazol-5-yl)amino)pyridin-3-yl)butanoic acid] | <5.0
10 | CC(C)CN(c1ncc([C@H](C)CC(=O)O)cc1Nc1nc(Cl)ns1)C1CC(F)(F)C1 [Example 81] | <5.0
11 | CC(C)CN(c1ncc([C@H](C)CC(=O)NS(C)(=O)=O)cc1Nc1ccc(Cl)cn1)C1CCOCC1 [Example 79, (3R)-3-{5-[(5-chloropyridin-2-yl)amino]-6-[(2-methylpropyl)(oxan-4-yl)amino]pyridin-3-yl}-N-methanesulfonylbutanamide] | <5.0
12 | CC(C)CN(c1ncc(C(C)CC(=O)O)cc1Nc1nc(C2CC2)ns1)C1CCOCC1 (stereo not drawn) [Example 37, 3-{5-[(3-cyclopropyl-1,2,4-thiadiazol-5-yl)amino]-6-[(2-methylpropyl)(oxan-4-yl)amino]pyridin-3-yl}butanoic acid] | <5.0
13 | CC(C)CN(c1ncc([C@H](C)CC(=O)O)cc1Nc1nc(C(C)C)ns1)C1CCOCC1 [Example 8] | <5.0
14 | CC(C)CN(c1ncc([C@H](C)CC(=O)O)cc1Nc1n[nH]c(C(F)(F)F)n1)C1CCOCC1 [Example 42, (3R)-3-{6-[(2-methylpropyl)(oxan-4-yl)amino]-5-{[5-(trifluoromethyl)-1H-1,2,4-triazol-3-yl]amino}pyridin-3-yl}butanoic acid] | <5.0
15 | CC(C)CN(c1ncc([C@H](C)CC(=O)O)cc1Nc1ccc(Cl)c(Cl)n1)C1CCOCC1 [Example 68, (3R)-3-{5-[(5,6-dichloropyridin-2-yl)amino]-6-[(2-methylpropyl)(oxan-4-yl)amino]pyridin-3-yl}butanoic acid] | <5.0
16 | Cc1nsc(Nc2cc([C@H](C)CC(=O)O)cnc2N(CC(C)C)C2CCCCC2)n1 [Example 16, (R)-3-(6-(cyclohexyl(isobutyl)amino)-5-((3-methyl-1,2,4-thiadiazol-5-yl)amino)pyridin-3-yl)butanoic acid] | <5.2
17 | COCc1nsc(Nc2cc([C@H](C)CC(=O)O)cnc2N(CC(C)C)C2CCOCC2)n1 [Example 56, (3R)-3-(5-{[3-(methoxymethyl)-1,2,4-thiadiazol-5-yl]amino}-6-[(2-methylpropyl)(oxan-4-yl)amino]pyridin-3-yl)butanoic acid] | <5.0
18 | CC(C)CN(c1ncc([C@H](C)CC(=O)O)cc1Nc1n[nH]c(C(N)=O)n1)C1CCOCC1 [Example 44, (3R)-3-{5-[(5-carbamoyl-1H-1,2,4-triazol-3-yl)amino]-6-[(2-methylpropyl)(oxan-4-yl)amino]pyridin-3-yl}butanoic acid] | <5.0
19 | CC(C)CN(c1ncc([C@H](C)CC(=O)O)cc1Nc1ccc(C(F)(F)F)cn1)C1CCOCC1 [Example 52, (3R)-3-{6-[(2-methylpropyl)(oxan-4-yl)amino]-5-{[5-(trifluoromethyl)pyridin-2-yl]amino}pyridin-3-yl}butanoic acid] | <5.0
20 | CC(C)CN(c1ncc([C@H](C)CC(=O)O)cc1Nc1nc(C(F)(F)F)ns1)C1CCCCC1 [Example 11, (R)-3-(6-(cyclohexyl(isobutyl)amino)-5-((3-(trifluoromethyl)-1,2,4-thiadiazol-5-yl)amino)pyridin-3-yl)butanoic acid] | <5.0
21 | CC(C)CN(c1ncc([C@H](C)CC(=O)O)cc1Nc1ccc(C(F)(F)F)nn1)C1CCOCC1 [Example 66, (3R)-3-{6-[(2-methylpropyl)(oxan-4-yl)amino]-5-{[6-(trifluoromethyl)pyridazin-3-yl]amino}pyridin-3-yl}butanoic acid] | <5.0
22 | CC(C)CN(c1ncc([C@H](C)CC(=O)O)cc1Nc1ccc(C#N)nn1)C1CCOCC1 [Example 74, (3R)-3-{5-[(6-cyanopyridazin-3-yl)amino]-6-[(2-methylpropyl)(oxan-4-yl)amino]pyridin-3-yl}butanoic acid] | <5.0
23 | CC(C)CN(CCC(F)(F)F)c1ncc([C@H](C)CC(=O)O)cc1Nc1ccc(Cl)cn1 [Example 76, (3R)-3-{5-[(5-chloropyridin-2-yl)amino]-6-[(2-methylpropyl)(3,3,3-trifluoropropyl)amino]pyridin-3-yl}butanoic acid] | <5.0
24 | CO[C@H]1CC[C@H](N(CC(C)C)c2ncc([C@H](C)CC(=O)O)cc2Nc2ccc(Cl)cn2)CC1 [Example 27, (R)-3-(5-((5-chloropyridin-2-yl)amino)-6-(isobutyl((1r,4R)-4-methoxycyclohexyl)amino)pyridin-3-yl)butanoic acid] | <5.0
